Experimental data taken from US20100035755A1, “METHOD OF CONTROLLING WEEDS IN A TURF GRASS BY USING SULFONYLUREA COMPOUNDS” (Moghu Research Center Ltd., priority 2008, published 2010).

Experiments:
Perennial rye grass = assay: Turf grass selectivity, greenhouse pot test; format: in vivo
Excerpt: (§1) Turf mats of Zoysia grass, bentgrass, Kentucky bluegrass, or perennial rye grass known as cool season turfgrass or western grass were purchased and cut into a piece having 10 cm×20 cm size. Then, each piece was transplanted in a rectangular plastic pot (surface area of 300 cm^2) in which sandy loam and mixed top soil (Boo-Nong Top Soil No. 3, for horticultural use) are filled in 1:1 ratio. After the transplantation, the grasses were cut once a week to maintain the blade height at 0.5-1.0 cm and cultivated for one month in a green house of which temperature was kept at 25˜30° C. for daytime and 15˜25° C. for nighttime, respectively. Then, the ‘test chemical’ of the above Examples 1 and 2 or ‘control chemical’ was applied thereto in an amount of 400, 200, 100, 50, 25, 12, 6, 3 g ai/ha. As a “control chemical”, pyrazolsulfuron ethyl wettable agent (manufactured by Dongbu Fine Chemicals; herein after, referred to as ‘control chemical No. 1’) and flazasulfuron (manufactured by Dongbu HiTek; herein after, referred to as ‘control chemical No. 2’), both sulfonylurea herbicides for a turf grass, were used. Application was carried out by using a track sprayer (R&D Sprayer, USA) equipped with Teejet 8002 nozzle (Spraying Systems Co., USA), and the application amount was adjusted to 2,000 L/ha, which is a typical application amount for a golf course in Korea. Application solution was prepared by diluting the “test chemical” or the “control chemical” with tap water. […] The test was repeated three times in a random arrangement and the results are given in average value of each test (see Table 2 below).

Zoysia japonica = assay: Turf grass selectivity, greenhouse pot test; format: in vivo; conditions: Zoysia japonica
Excerpt: as §1

Kentucky bluegrass = assay: Turf grass selectivity, greenhouse pot test; format: in vivo, Poa pratensis
Excerpt: as §1

Cyperus amuricus = assay: Weed spectrum, greenhouse pot test; format: in vivo; conditions: two weeks after application
Excerpt: (§2) To a rectangular plastic pot (surface area of 300 cm^2) in which sandy loam and mixed top soil (Boo-Nong Top Soil No. 3, for horticultural use) are filled in 1:1 ratio, eight different kinds of weed seeds including Poa annua and Digitaria sanguinalis as poaceae weed, Cyperus amuricus as cyperaceae weeds and Trifolium repens, Kummerowia striata, fleabane, Veronica officinalis and Portulaca oleracea as broadleaf weeds were sewn (50 to 100 seeds per each weed). These weeds are representative examples of the weeds which typically thrive in a turf grass field.
(§3) The pot was kept in a greenhouse which was maintained at 25˜30° C. for daytime and 15˜25° C. for nighttime, respectively, and irrigation was carried out regularly. Fourteen days after seeding, when the turf grass and the weeds reached approximately at three-leaf stage, the weed seeds were again sewn in separate two pots or “Test chemical” and “Control chemical” were applied in the same manner as the method described above. In this regard, when plants were cultivated for two weeks and then the chemical application was carried out, it is designated as “post-emergence” treatment. On the other than, when the seeding was carried right before the chemical application, it is designated as “pre-emergence” treatment. Preparation of a chemical solution, application method, etc. are the same as above described for evaluation of turf grass selectivity. Two weeks after the chemical application, efficacy of the chemicals for each type of the weeds was evaluated (visual evaluation) based on 0 to 100 scale (i.e., 0 indicates no efficacy and 100 indicates complete weed control).

Digitaria sanguinalis = assay: Weed spectrum, greenhouse pot test; format: in vivo; conditions: two weeks after application
Excerpt: as §2, §3

Portulaca oleracea = assay: Weed spectrum, greenhouse pot test; format: in vivo; conditions: two weeks after application
Excerpt: as §2, §3

Veronica officinalis = assay: Weed spectrum, greenhouse pot test; format: in vivo; conditions: two weeks after application
Excerpt: as §2, §3

Dandelion = assay: Weed spectrum, greenhouse pot test; format: in vivo; conditions: two weeks after application

Cc1cc(C)nc(NC(=O)NS(=O)(=O)c2ccccc2C(O)C(C)F)n1 (stereo not shown) [Example 1]
phytotoxicity (visual assessment 0-10) (Perennial rye grass; 3 g ai/ha, 2 weeks): 0 | phytotoxicity (visual assessment 0-10) (Perennial rye grass; 3 g ai/ha, 4 weeks): 0 | phytotoxicity (visual assessment 0-10) (Perennial rye grass; 6 g ai/ha, 2 weeks): 0 | phytotoxicity (visual assessment 0-10) (Perennial rye grass; 6 g ai/ha, 4 weeks): 0 | phytotoxicity (visual assessment 0-10) (Perennial rye grass; 12 g ai/ha, 2 weeks): 0 | phytotoxicity (visual assessment 0-10) (Perennial rye grass; 12 g ai/ha, 4 weeks): 0 | phytotoxicity (visual assessment 0-10) (Perennial rye grass; 25 g ai/ha, 2 weeks): 0 | phytotoxicity (visual assessment 0-10) (Perennial rye grass; 25 g ai/ha, 4 weeks): 0 | phytotoxicity (visual assessment 0-10) (Perennial rye grass; 50 g ai/ha, 2 weeks): 0 | phytotoxicity (visual assessment 0-10) (Perennial rye grass; 50 g ai/ha, 4 weeks): 0 | phytotoxicity (visual assessment 0-10) (Perennial rye grass; 100 g ai/ha, 2 weeks): 0 | phytotoxicity (visual assessment 0-10) (Perennial rye grass; 100 g ai/ha, 4 weeks): 0 | phytotoxicity (visual assessment 0-10) (Perennial rye grass; 200 g ai/ha, 2 weeks): 0 | phytotoxicity (visual assessment 0-10) (Perennial rye grass; 200 g ai/ha, 4 weeks): 0 | phytotoxicity (visual assessment 0-10) (Perennial rye grass; 400 g ai/ha, 2 weeks): 1 | phytotoxicity (visual assessment 0-10) (Perennial rye grass; 400 g ai/ha, 4 weeks): 0 | phytotoxicity (visual assessment 0-10) (Zoysia japonica; 3 g ai/ha, 2 weeks): 0 | phytotoxicity (visual assessment 0-10) (Zoysia japonica; 3 g ai/ha, 4 weeks): 0 | phytotoxicity (visual assessment 0-10) (Zoysia japonica; 6 g ai/ha, 2 weeks): 0 | phytotoxicity (visual assessment 0-10) (Zoysia japonica; 6 g ai/ha, 4 weeks): 0 | phytotoxicity (visual assessment 0-10) (Zoysia japonica; 12 g ai/ha, 2 weeks): 0 | phytotoxicity (visual assessment 0-10) (Zoysia japonica; 12 g ai/ha, 4 weeks): 0 | phytotoxicity (visual assessment 0-10) (Zoysia japonica; 25 g ai/ha, 2 weeks): 0 | phytotoxicity (visual assessment 0-10) (Zoysia japonica; 25 g ai/ha, 4 weeks): 0 | phytotoxicity (visual assessment 0-10) (Zoysia japonica; 50 g ai/ha, 2 weeks): 0 | phytotoxicity (visual assessment 0-10) (Zoysia japonica; 50 g ai/ha, 4 weeks): 0 | phytotoxicity (visual assessment 0-10) (Zoysia japonica; 100 g ai/ha, 2 weeks): 0 | phytotoxicity (visual assessment 0-10) (Zoysia japonica; 100 g ai/ha, 4 weeks): 0 | phytotoxicity (visual assessment 0-10) (Zoysia japonica; 200 g ai/ha, 2 weeks): 0 | phytotoxicity (visual assessment 0-10) (Zoysia japonica; 200 g ai/ha, 4 weeks): 0 | phytotoxicity (visual assessment 0-10) (Zoysia japonica; 400 g ai/ha, 2 weeks): 0 | phytotoxicity (visual assessment 0-10) (Zoysia japonica; 400 g ai/ha, 4 weeks): 0 | phytotoxicity (visual assessment 0-10) (Kentucky bluegrass; 3 g ai/ha, 2 weeks): 0 | phytotoxicity (visual assessment 0-10) (Kentucky bluegrass; 3 g ai/ha, 4 weeks): 0 | phytotoxicity (visual assessment 0-10) (Kentucky bluegrass; 6 g ai/ha, 2 weeks): 0 | phytotoxicity (visual assessment 0-10) (Kentucky bluegrass; 6 g ai/ha, 4 weeks): 0 | phytotoxicity (visual assessment 0-10) (Kentucky bluegrass; 12 g ai/ha, 2 weeks): 0 | phytotoxicity (visual assessment 0-10) (Kentucky bluegrass; 12 g ai/ha, 4 weeks): 0 | phytotoxicity (visual assessment 0-10) (Kentucky bluegrass; 25 g ai/ha, 2 weeks): 0 | phytotoxicity (visual assessment 0-10) (Kentucky bluegrass; 25 g ai/ha, 4 weeks): 0 | phytotoxicity (visual assessment 0-10) (Kentucky bluegrass; 50 g ai/ha, 2 weeks): 0 | phytotoxicity (visual assessment 0-10) (Kentucky bluegrass; 50 g ai/ha, 4 weeks): 0 | phytotoxicity (visual assessment 0-10) (Kentucky bluegrass; 100 g ai/ha, 2 weeks): 0 | phytotoxicity (visual assessment 0-10) (Kentucky bluegrass; 100 g ai/ha, 4 weeks): 0 | phytotoxicity (visual assessment 0-10) (Kentucky bluegrass; 200 g ai/ha, 2 weeks): 1 | phytotoxicity (visual assessment 0-10) (Kentucky bluegrass; 200 g ai/ha, 4 weeks): 0 | phytotoxicity (visual assessment 0-10) (Kentucky bluegrass; 400 g ai/ha, 2 weeks): 2 | phytotoxicity (visual assessment 0-10) (Kentucky bluegrass; 400 g ai/ha, 4 weeks): 1 | efficacy (0-100 scale) (Cyperus amuricus; Post-emergence, 12 g ai/ha): 90 | efficacy (0-100 scale) (Cyperus amuricus; Post-emergence, 25 g ai/ha): 95 | efficacy (0-100 scale) (Cyperus amuricus; Post-emergence, 50 g ai/ha): 100 | efficacy (0-100 scale) (Cyperus amuricus; Post-emergence, 100 g ai/ha): 100 | efficacy (0-100 scale) (Cyperus amuricus; Pre-emergence, 12 g ai/ha): 90 | efficacy (0-100 scale) (Cyperus amuricus; Pre-emergence, 25 g ai/ha): 95 | efficacy (0-100 scale) (Cyperus amuricus; Pre-emergence, 50 g ai/ha): 100 | efficacy (0-100 scale) (Cyperus amuricus; Pre-emergence, 100 g ai/ha): 100 | efficacy (0-100 scale) (Digitaria sanguinalis; Post-emergence, 12 g ai/ha): 60 | efficacy (0-100 scale) (Digitaria sanguinalis; Post-emergence, 25 g ai/ha): 70 | efficacy (0-100 scale) (Digitaria sanguinalis; Post-emergence, 50 g ai/ha): 90 | efficacy (0-100 scale) (Digitaria sanguinalis; Post-emergence, 100 g ai/ha): 100 | efficacy (0-100 scale) (Digitaria sanguinalis; Pre-emergence, 12 g ai/ha): 60 | efficacy (0-100 scale) (Digitaria sanguinalis; Pre-emergence, 25 g ai/ha): 85 | efficacy (0-100 scale) (Digitaria sanguinalis; Pre-emergence, 50 g ai/ha): 100 | efficacy (0-100 scale) (Digitaria sanguinalis; Pre-emergence, 100 g ai/ha): 100 | efficacy (0-100 scale) (Portulaca oleracea; Post-emergence, 12 g ai/ha): 70 | efficacy (0-100 scale) (Portulaca oleracea; Post-emergence, 25 g ai/ha): 90 | efficacy (0-100 scale) (Portulaca oleracea; Post-emergence, 50 g ai/ha): 100 | efficacy (0-100 scale) (Portulaca oleracea; Post-emergence, 100 g ai/ha): 100 | efficacy (0-100 scale) (Portulaca oleracea; Pre-emergence, 12 g ai/ha): 90 | efficacy (0-100 scale) (Portulaca oleracea; Pre-emergence, 25 g ai/ha): 90 | efficacy (0-100 scale) (Portulaca oleracea; Pre-emergence, 50 g ai/ha): 100 | efficacy (0-100 scale) (Portulaca oleracea; Pre-emergence, 100 g ai/ha): 100 | efficacy (0-100 scale) (Veronica officinalis; Post-emergence, 12 g ai/ha): 20 | efficacy (0-100 scale) (Veronica officinalis; Post-emergence, 25 g ai/ha): 20 | efficacy (0-100 scale) (Veronica officinalis; Post-emergence, 50 g ai/ha): 20 | efficacy (0-100 scale) (Veronica officinalis; Post-emergence, 100 g ai/ha): 20 | efficacy (0-100 scale) (Veronica officinalis; Pre-emergence, 12 g ai/ha): 30 | efficacy (0-100 scale) (Veronica officinalis; Pre-emergence, 25 g ai/ha): 30 | efficacy (0-100 scale) (Veronica officinalis; Pre-emergence, 50 g ai/ha): 40 | efficacy (0-100 scale) (Veronica officinalis; Pre-emergence, 100 g ai/ha): 50 | efficacy (0-100 scale) (Dandelion; Post-emergence, 12 g ai/ha): 90 | efficacy (0-100 scale) (Dandelion; Post-emergence, 25 g ai/ha): 90 | efficacy (0-100 scale) (Dandelion; Post-emergence, 50 g ai/ha): 100 | efficacy (0-100 scale) (Dandelion; Post-emergence, 100 g ai/ha): 100 | efficacy (0-100 scale) (Dandelion; Pre-emergence, 12 g ai/ha): 90 | efficacy (0-100 scale) (Dandelion; Pre-emergence, 25 g ai/ha): 90 | efficacy (0-100 scale) (Dandelion; Pre-emergence, 50 g ai/ha): 100 | efficacy (0-100 scale) (Dandelion; Pre-emergence, 100 g ai/ha): 100
